# Data as given in patent US9371280B2, “Substituted pyrrolidine-2-carboxamides” (Hoffmann-La Roche Inc., priority 2012, dated 2016).
# pIC50: −log10 of the molar value. Where a name gives a salt, the structure may show the parent alone.
# Molecular target: interaction between p53 and MDM2 proteins (recombinant GST-tagged MDM2) (Homo sapiens, UniProt Q00987)
# Assay: HTRF assay of inhibition of the p53-MDM2 interaction (GST-MDM2 / biotinylated p53 peptide);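 further: FRET read-out from Eu-labelled anti-GST antibody to streptavidin-APC, with 90 nM N-terminally biotinylated p53 peptide and 160 ng/ml GST-MDM2 in Tris-borate saline containing 1 mM DTT, 384-well format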
# Format: binding
# Settings: HTRF, 0.02% BSA, 37° C. 1 h
# Experimental: The ability of the compounds to inhibit the interaction between p53 and MDM2 proteins was measured by an HTRF (homogeneous time-resolved fluorescence) assay in which recombinant GST-tagged MDM2 binds to a peptide that resembles the MDM2-interacting region of p53 (Lane et al.). Binding of GST-MDM2 protein and p53-peptide (biotinylated on its N-terminal end) is registered by the FRET (fluorescence resonance energy transfer) between Europium (Eu)-labeled anti-GST antibody and streptavidin-conjugated Allophycocyanin (APC).
# Test is performed in black flat-bottom 384-well plates (Costar) in a total volume of 40 uL containing: 90 nM biotinylate peptide, 160 ng/ml GST-MDM2, 20 nM streptavidin-APC (PerkinElmerWallac), 2 nM Eu-labeled anti-GST-antibody (PerkinElmerWallac), 0.02% bovine serum albumin (BSA), 1 mM dithiothreitol (DTT) and 20 mM Tris-borate saline (TBS) buffer as follows: Add 10 uL of GST-MDM2 (640 ng/ml working solution) in reaction buffer to each well. […] Incubate at 37° C. for 1 h.
# interaction between p53 and MDM2 proteins (recombinant GST-tagged MDM2), sequence (Q00987 whole entry): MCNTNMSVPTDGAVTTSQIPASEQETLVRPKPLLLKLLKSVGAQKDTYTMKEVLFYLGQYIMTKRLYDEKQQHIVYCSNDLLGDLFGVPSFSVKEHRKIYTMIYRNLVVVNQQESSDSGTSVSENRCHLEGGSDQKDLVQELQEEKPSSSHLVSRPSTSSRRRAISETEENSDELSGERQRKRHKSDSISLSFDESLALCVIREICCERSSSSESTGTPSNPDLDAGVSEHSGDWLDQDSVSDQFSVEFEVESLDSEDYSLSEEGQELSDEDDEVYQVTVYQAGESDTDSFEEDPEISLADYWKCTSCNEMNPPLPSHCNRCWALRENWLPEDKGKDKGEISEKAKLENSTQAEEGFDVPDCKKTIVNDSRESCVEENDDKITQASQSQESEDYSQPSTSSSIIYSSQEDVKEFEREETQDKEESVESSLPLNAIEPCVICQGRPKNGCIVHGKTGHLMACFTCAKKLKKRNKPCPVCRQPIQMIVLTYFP
row,pIC50,SMILES
1,7.94,"COc1cc(C(=O)OCCN2CCN(CCO)CC2)ccc1NC(=O)[C@@H]1N[C@@H](CC(C)(C)C)[C@](C#N)(c2ccc(Cl)cc2F)[C@H]1c1cccc(Cl)c1F [Example 61, 4-{[(2R,3S,4R,5S)-4-(4-Chloro-2-fluoro-phenyl)-3-(3-chloro-2-fluoro-phenyl)-4-cyano-5-(2,2-dimethyl-propyl)-pyrrolidine-2-carbonyl]-amino}-3-methoxy-benzoic acid 2-[4-(2-hydroxy-ethyl)-piperazin-1-yl]-ethyl ester]"
2,7.94,"COc1cc(C(=O)OCC(=O)N2CCN(C)CC2)ccc1NC(=O)[C@@H]1N[C@@H](CC(C)(C)C)[C@](C#N)(c2ccc(Cl)cc2F)[C@H]1c1cccc(Cl)c1F [Example 64, 4-{[(2R,3S,4R,5S)-4-(4-Chloro-2-fluoro-phenyl)-3-(3-chloro-2-fluoro-phenyl)-4-cyano-5-(2,2-dimethyl-propyl)-pyrrolidine-2-carbonyl]-amino}-3-methoxy-benzoic acid 2-(4-methyl-piperazin-1-yl)-2-oxo-ethyl ester, hydrochloride]"
3,7.89,"COc1cc(C(=O)OCC(N)=O)ccc1NC(=O)[C@@H]1N[C@@H](CC(C)(C)C)[C@](C#N)(c2ccc(Cl)cc2F)[C@H]1c1cccc(Cl)c1F [Example 65, 4-{[(2R,3S,4R,5S)-4-(4-Chloro-2-fluoro-phenyl)-3-(3-chloro-2-fluoro-phenyl)-4-cyano-5-(2,2-dimethyl-propyl)-pyrrolidine-2-carbonyl]-amino}-3-methoxy-benzoic acid carbamoylmethyl ester]"
4,8.04,"COc1cc(C(=O)OCC(=O)N2CCOCC2)ccc1NC(=O)[C@@H]1N[C@@H](CC(C)(C)C)[C@](C#N)(c2ccc(Cl)cc2F)[C@H]1c1cccc(Cl)c1F [Example 66, 4-{[(2R,3S,4R,5S)-4-(4-Chloro-2-fluoro-phenyl)-3-(3-chloro-2-fluoro-phenyl)-4-cyano-5-(2,2-dimethyl-propyl)-pyrrolidine-2-carbonyl]-amino}-3-methoxy-benzoic acid 2-morpholin-4-yl-2-oxo-ethyl ester]"
5,7.93,"COc1cc(C(=O)OCC(=O)NCC2COC(C)(C)O2)ccc1NC(=O)[C@@H]1N[C@@H](CC(C)(C)C)[C@](C#N)(c2ccc(Cl)cc2F)[C@H]1c1cccc(Cl)c1F (stereo partly drawn) [Example 67, 4-{[(2R,3S,4R,5S)-4-(4-Chloro-2-fluoro-phenyl)-3-(3-chloro-2-fluoro-phenyl)-4-cyano-5-(2,2-dimethyl-propyl)-pyrrolidine-2-carbonyl]-amino}-3-methoxy-benzoic acid [(2,2-dimethyl-[1,3]dioxolan-4-ylmethyl)-carbamoyl]-methyl ester]"
6,7.92,"COc1cc(C(=O)OCC(=O)NCC(O)CO)ccc1NC(=O)[C@@H]1N[C@@H](CC(C)(C)C)[C@](C#N)(c2ccc(Cl)cc2F)[C@H]1c1cccc(Cl)c1F (stereo partly drawn) [Example 68, 4-{[(2R,3S,4R,5S)-4-(4-Chloro-2-fluoro-phenyl)-3-(3-chloro-2-fluoro-phenyl)-4-cyano-5-(2,2-dimethyl-propyl)-pyrrolidine-2-carbonyl]-amino}-3-methoxy-benzoic acid (2,3-dihydroxy-propylcarbamoyl)-methyl ester]"

# Further lines, the compound ahead of its results:
row,SMILES,pIC50
1,"COc1cc(C(=O)OCCOCCOCCO)ccc1NC(=O)[C@@H]1N[C@@H](CC(C)(C)C)[C@](C#N)(c2ccc(Cl)cc2F)[C@H]1c1cccc(Cl)c1F [Example 47, 4-{[(2R,3S,4R,5S)-4-(4-Chloro-2-fluoro-phenyl)-3-(3-chloro-2-fluoro-phenyl)-4-cyano-5-(2,2-dimethyl-propyl)-pyrrolidine-2-carbonyl]-amino}-3-methoxy-benzoic acid 2-[2-(2-hydroxy-ethoxy)-ethoxy]-ethyl ester, hydrochloride]",8.08
2,"COCCOCCOCCOC(=O)c1ccc(NC(=O)[C@@H]2N[C@@H](CC(C)(C)C)[C@](C#N)(c3ccc(Cl)cc3F)[C@H]2c2cccc(Cl)c2F)c(OC)c1 [Example 48, 4-{[(2R,3S,4R,5S)-4-(4-Chloro-2-fluoro-phenyl)-3-(3-chloro-2-fluoro-phenyl)-4-cyano-5-(2,2-dimethyl-propyl)-pyrrolidine-2-carbonyl]-amino}-3-methoxy-benzoic acid 2-[2-(2-methoxy-ethoxy)-ethoxy]-ethyl ester, hydrochloride]",7.87
3,"COCCOCCOCCOCCOC(=O)c1ccc(NC(=O)[C@@H]2N[C@@H](CC(C)(C)C)[C@](C#N)(c3ccc(Cl)cc3F)[C@H]2c2cccc(Cl)c2F)c(OC)c1 [Example 49, 4-{[(2R,3S,4R,5S)-4-(4-Chloro-2-fluoro-phenyl)-3-(3-chloro-2-fluoro-phenyl)-4-cyano-5-(2,2-dimethyl-propyl)-pyrrolidine-2-carbonyl]-amino}-3-methoxy-benzoic acid 2-{2-[2-(2-methoxy-ethoxy)-ethoxy]-ethoxy}-ethyl ester, hydrochloride]",7.86
4,"COc1cc(C(=O)OCCOCCOCCOCCOCCO)ccc1NC(=O)[C@@H]1N[C@@H](CC(C)(C)C)[C@](C#N)(c2ccc(Cl)cc2F)[C@H]1c1cccc(Cl)c1F [Example 50, 4-{[(2R,3S,4R,5S)-4-(4-Chloro-2-fluoro-phenyl)-3-(3-chloro-2-fluoro-phenyl)-4-cyano-5-(2,2-dimethyl-propyl)-pyrrolidine-2-carbonyl]-amino}-3-methoxy-benzoic acid 2-(2-{2-[2-(2-hydroxy-ethoxy)-ethoxy]-ethoxy}-ethoxy)-ethyl ester, hydrochloride]",8.04
5,"COCCOCCOCCOCCOCCOC(=O)c1ccc(NC(=O)[C@@H]2N[C@@H](CC(C)(C)C)[C@](C#N)(c3ccc(Cl)cc3F)[C@H]2c2cccc(Cl)c2F)c(OC)c1 [Example 51, 4-{[(2R,3S,4R,5S)-4-(4-Chloro-2-fluoro-phenyl)-3-(3-chloro-2-fluoro-phenyl)-4-cyano-5-(2,2-dimethyl-propyl)-pyrrolidine-2-carbonyl]-amino}-3-methoxy-benzoic acid 2-(2-{2-[2-(2-methoxy-ethoxy)-ethoxy]-ethoxy}-ethoxy)-ethyl ester, hydrochloride]",8.00
6,"COc1cc(C(=O)OCCOCCOCCOCCOCCOCCO)ccc1NC(=O)[C@@H]1N[C@@H](CC(C)(C)C)[C@](C#N)(c2ccc(Cl)cc2F)[C@H]1c1cccc(Cl)c1F [Example 52, 4-{[(2R,3S,4R,5S)-4-(4-Chloro-2-fluoro-phenyl)-3-(3-chloro-2-fluoro-phenyl)-4-cyano-5-(2,2-dimethyl-propyl)-pyrrolidine-2-carbonyl]-amino}-3-methoxy-benzoic acid 2-[2-(2-{2-[2-(2-hydroxy-ethoxy)-ethoxy]-ethoxy}-ethoxy)-ethoxy]-ethyl ester, hydrochloride]",8.00
7,"COC(=O)CC[C@@H](NC(=O)c1ccc(NC(=O)[C@@H]2N[C@@H](CC(C)(C)C)[C@](C#N)(c3ccc(Cl)cc3F)[C@H]2c2cccc(Cl)c2F)c(OC)c1)C(=O)OC [Example 53, (R)-2-(4-{[(2R,3S,4R,5S)-4-(4-Chloro-2-fluoro-phenyl)-3-(3-chloro-2-fluoro-phenyl)-4-cyano-5-(2,2-dimethyl-propyl)-pyrrolidine-2-carbonyl]-amino}-3-methoxy-benzoylamino)-pentanedioic acid dimethyl ester, hydrochloride]",7.90
8,"COc1cc(C(=O)N[C@H](CCC(=O)O)C(=O)O)ccc1NC(=O)[C@@H]1N[C@@H](CC(C)(C)C)[C@](C#N)(c2ccc(Cl)cc2F)[C@H]1c1cccc(Cl)c1F [Example 54, (R)-2-(4-{[(2R,3S,4R,5S)-4-(4-Chloro-2-fluoro-phenyl)-3-(3-chloro-2-fluoro-phenyl)-4-cyano-5-(2,2-dimethyl-propyl)-pyrrolidine-2-carbonyl]-amino}-3-methoxy-benzoylamino)-pentanedioic acid, hydrochloride]",8.34
9,"COc1cc(C(=O)N(C)C[C@H](O)[C@@H](O)[C@H](O)[C@H](O)CO)ccc1NC(=O)[C@@H]1N[C@@H](CC(C)(C)C)[C@](C#N)(c2ccc(Cl)cc2F)[C@H]1c1cccc(Cl)c1F [Example 55, (2R,3S,4R,5S)-4-(4-Chloro-2-fluoro-phenyl)-3-(3-chloro-2-fluoro-phenyl)-4-cyano-5-(2,2-dimethyl-propyl)-pyrrolidine-2-carboxylic acid {2-methoxy-4-[methyl-((2S,3R,4R,5R)-2,3,4,5,6-pentahydroxy-hexyl)-carbamoyl]-phenyl}-amide, hydrochloride]",8.04
10,"COc1cc(C(=O)N[C@@H]2[C@@H](O)[C@H](O)[C@@H](CO)O[C@@H]2O)ccc1NC(=O)[C@@H]1N[C@@H](CC(C)(C)C)[C@](C#N)(c2ccc(Cl)cc2F)[C@H]1c1cccc(Cl)c1F [Example 56, (2R,3S,4R,5S)-4-(4-Chloro-2-fluoro-phenyl)-3-(3-chloro-2-fluoro-phenyl)-4-cyano-5-(2,2-dimethyl-propyl)-pyrrolidine-2-carboxylic acid [2-methoxy-4-((2S,3R,4R,5S,6R)-2,4,5-trihydroxy-6-hydroxymethyl-tetrahydro-pyran-3-ylcarbamoyl)-phenyl]-amide, hydrochloride]",8.01
11,"COc1cc(C(=O)OCCOCCOCCOCCO)ccc1NC(=O)[C@@H]1N[C@@H](CC(C)(C)C)[C@](C#N)(c2ccc(Cl)cc2F)[C@H]1c1cccc(Cl)c1F [Example 57, 4-{[(2R,3S,4R,5S)-4-(4-Chloro-2-fluoro-phenyl)-3-(3-chloro-2-fluoro-phenyl)-4-cyano-5-(2,2-dimethyl-propyl)-pyrrolidine-2-carbonyl]-amino}-3-methoxy-benzoic acid 2-{2-[2-(2-hydroxy-ethoxy)-ethoxy]-ethoxy}-ethyl ester, hydrochloride]",7.76
12,"COc1cc(C(=O)OCCN2CCN(CCOC(=O)c3ccc(NC(=O)[C@@H]4N[C@@H](CC(C)(C)C)[C@](C#N)(c5ccc(Cl)cc5F)[C@H]4c4cccc(Cl)c4F)c(OC)c3)CC2)ccc1NC(=O)[C@@H]1N[C@@H](CC(C)(C)C)[C@](C#N)(c2ccc(Cl)cc2F)[C@H]1c1cccc(Cl)c1F [Example 60, 4-{[(2R,3S,4R,5S)-4-(4-Chloro-2-fluoro-phenyl)-3-(3-chloro-2-fluoro-phenyl)-4-cyano-5-(2,2-dimethyl-propyl)-pyrrolidine-2-carbonyl]-amino}-3-methoxy-benzoic acid, 2-[4-(2-hydroxy-ethyl)-piperazin-1-yl]-ethyl ester, dimer]",6.68
